From ChEMBL document CHEMBL3885881, “DrugMatrix”

Species: Rattus norvegicus
Assay: DrugMatrix - Regimen: Daily Repeat
Format: toxicity, organism-based, Sprague-Dawley
Parameters: regimen Daily Repeat, gender Male, age 6-8 weeks
Conditions: in vivo, po, route oral GAVAGE, […]; for ABSOLUTE BASOPHIL / ABSOLUTE EOSINOPHIL / ABSOLUTE LYMPHOCYTE / ABSOLUTE MONOCYTE / ABSOLUTE SEGMENTED NEUTROPHIL / BASOPHIL / EOSINOPHIL / ERYTHROCYTE COUNT / HEMATOCRIT / LEUKOCYTE COUNT / LYMPHOCYTE / MEAN CORPUSCULAR HEMOGLOBIN / MEAN CORPUSCULAR HEMOGLOBIN CONCENTRATION / MEAN CORPUSCULAR VOLUME / NEUTROPHIL / NUCLEATED RED BLOOD CELLS / PLATELET COUNT / HEMOGLOBIN: tissue Blood; for ALANINE AMINOTRANSFERASE / ALBUMIN / ALKALINE PHOSPHATASE / ASPARTATE AMINOTRANSFERASE / BLOOD UREA NITROGEN / CARBON DIOXIDE / CHLORIDE / CHOLESTEROL / CREATINE PHOSPHOKINASE / CREATININE / LACTATE DEHYDROGENASE / LIPASE / PHOSPHORUS / POTASSIUM / SODIUM / TOTAL BILIRUBIN / URIC ACID: tissue Plasma
[1] = 0 mg/kg, 72 h, dose level Control, time 3 day
[2] = 0 mg/kg, 120 h, dose level Control, time 5 day
[3] = 0 mg/kg, dose level Control, time 28 day
[4] = 10 mg/kg, 72 h, dose level High, time 3 day
[5] = 10 mg/kg, 120 h, dose level High, time 5 day

`O=C(O)Cc1ccccc1Nc1c(Cl)cccc1Cl` [DICLOFENAC] was tested, and the “ABSOLUTE BASOPHIL” value [1] was 0 CELLS/uL, the “ABSOLUTE EOSINOPHIL” value [1] was 0 CELLS/uL and the “ABSOLUTE LYMPHOCYTE” value [1] was 8493 CELLS/uL. The “ABSOLUTE MONOCYTE” value [1] was 127 CELLS/uL, the “ABSOLUTE SEGMENTED NEUTROPHIL” value [1] was 896.67 CELLS/uL and the BASOPHIL [1] was 0%. For the same compound, the EOSINOPHIL [1] was 0%, the “ERYTHROCYTE COUNT” value [1] was 5.53 x10E6/uL and the HEMATOCRIT [1] was 34.07%. For the same compound, the “LEUKOCYTE COUNT” value [1] was 9.52 x10E3/uL, the LYMPHOCYTE [1] was 89.17% and the “MEAN CORPUSCULAR HEMOGLOBIN” value [1] was 24.07 pg. The “MEAN CORPUSCULAR HEMOGLOBIN CONCENTRATION” value [1] was 39.03 G/DL, the “MEAN CORPUSCULAR VOLUME” value [1] was 61.62 fL and the NEUTROPHIL [1] was 9.5%. For the same compound, the “NUCLEATED RED BLOOD CELLS” value [1] was 0.17 /100WBC, the “PLATELET COUNT” value [1] was 1054.17 x10E3/uL and the “ALANINE AMINOTRANSFERASE” value [1] was 77.67 u/L. The ALBUMIN [1] was 4.08 G/DL, the “ALKALINE PHOSPHATASE” value [1] was 404.5 u/L and the “ASPARTATE AMINOTRANSFERASE” value [1] was 83.17 u/L. For the same compound, the “BLOOD UREA NITROGEN” value [1] was 14.33 mg/dL, the “CARBON DIOXIDE” value [1] was 33.17 mmol/L and the CHLORIDE [1] was 101 MEQ/L. The CHOLESTEROL [1] was 76.33 mg/dL, the “CREATINE PHOSPHOKINASE” value [1] was 184.5 u/L and the CREATININE [1] was 0.13 mg/dL. The “LACTATE DEHYDROGENASE” value [1] was 130.33 u/L, the LIPASE [1] was 11 u/L and the PHOSPHORUS [1] was 9.27 mg/dL. For the same compound, the POTASSIUM [1] was 6.26 MEQ/L, the SODIUM [1] was 143.57 MEQ/L and the “TOTAL BILIRUBIN” value [1] was 0.18 mg/dL. The “URIC ACID” value [1] was 1.38 mg/dL, the “ABSOLUTE BASOPHIL” value [2] was 0 CELLS/uL and the “ABSOLUTE EOSINOPHIL” value [2] was 0 CELLS/uL. The “ABSOLUTE LYMPHOCYTE” value [2] was 8546.17 CELLS/uL, the “ABSOLUTE MONOCYTE” value [2] was 49.5 CELLS/uL and the “ABSOLUTE SEGMENTED NEUTROPHIL” value [2] was 554.33 CELLS/uL. For the same compound, the “NUCLEATED RED BLOOD CELLS” value [2] was 0.17 /100WBC, the “CARBON DIOXIDE” value [2] was 33.17 mmol/L and the CREATININE [2] was 0.18 mg/dL. For the same compound, the “LACTATE DEHYDROGENASE” value [2] was 111.5 u/L, the LIPASE [2] was 9.5 u/L and the “URIC ACID” value [2] was 0.78 mg/dL. The BASOPHIL [3] was 0.42%, the EOSINOPHIL [3] was 0.58% and the “ERYTHROCYTE COUNT” value [3] was 8.06 x10E6/uL. For the same compound, the HEMATOCRIT [3] was 48.44%, the HEMOGLOBIN [3] was 16.34 G/DL and the “LEUKOCYTE COUNT” value [3] was 13.04 x10E3/uL. For the same compound, the LYMPHOCYTE [3] was 85.12%, the “MEAN CORPUSCULAR HEMOGLOBIN” value [3] was 20.26 pg and the “MEAN CORPUSCULAR HEMOGLOBIN CONCENTRATION” value [3] was 33.74 G/DL. The “MEAN CORPUSCULAR VOLUME” value [3] was 60.1 fL, the NEUTROPHIL [3] was 11.28% and the “PLATELET COUNT” value [3] was 1226 x10E3/uL. For the same compound, the “ALANINE AMINOTRANSFERASE” value [3] was 28.6 u/L, the ALBUMIN [3] was 3.94 G/DL and the “ALKALINE PHOSPHATASE” value [3] was 254.6 u/L. The “ASPARTATE AMINOTRANSFERASE” value [3] was 67.8 u/L, the “BLOOD UREA NITROGEN” value [3] was 10.4 mg/dL and the CHLORIDE [3] was 104.6 MEQ/L. The CHOLESTEROL [3] was 57.6 mg/dL, the “CREATINE PHOSPHOKINASE” value [3] was 224.8 u/L and the CREATININE [3] was 0.4 mg/dL. For the same compound, the PHOSPHORUS [3] was 10.66 mg/dL, the POTASSIUM [3] was 6.58 MEQ/L and the SODIUM [3] was 148.6 MEQ/L. The “TOTAL BILIRUBIN” value [3] was 0.24 mg/dL, the “ABSOLUTE BASOPHIL” value [4] was 0 CELLS/uL and the “ABSOLUTE EOSINOPHIL” value [4] was 0 CELLS/uL. The “ABSOLUTE LYMPHOCYTE” value [4] was 9500.33 CELLS/uL, the “ABSOLUTE MONOCYTE” value [4] was 68 CELLS/uL and the “ABSOLUTE SEGMENTED NEUTROPHIL” value [4] was 1065 CELLS/uL. The BASOPHIL [4] was 0%, the EOSINOPHIL [4] was 0% and the “ERYTHROCYTE COUNT” value [4] was 5.04 x10E6/uL. For the same compound, the HEMATOCRIT [4] was 30.83%, the HEMOGLOBIN [4] was 12.23 G/DL and the “LEUKOCYTE COUNT” value [4] was 10.63 x10E3/uL. For the same compound, the LYMPHOCYTE [4] was 90%, the “MEAN CORPUSCULAR HEMOGLOBIN” value [4] was 24.3 pg and the “MEAN CORPUSCULAR HEMOGLOBIN CONCENTRATION” value [4] was 39.67 G/DL. For the same compound, the “MEAN CORPUSCULAR VOLUME” value [4] was 61.23 fL, the NEUTROPHIL [4] was 9% and the “NUCLEATED RED BLOOD CELLS” value [4] was 0 /100WBC. For the same compound, the “PLATELET COUNT” value [4] was 988.67 x10E3/uL, the “ALANINE AMINOTRANSFERASE” value [4] was 55.67 u/L and the ALBUMIN [4] was 3.43 G/DL. For the same compound, the “ALKALINE PHOSPHATASE” value [4] was 322 u/L, the “ASPARTATE AMINOTRANSFERASE” value [4] was 70.67 u/L and the “BLOOD UREA NITROGEN” value [4] was 11.67 mg/dL. For the same compound, the “CARBON DIOXIDE” value [4] was 33.33 mmol/L, the CHLORIDE [4] was 101 MEQ/L and the CHOLESTEROL [4] was 79.33 mg/dL. For the same compound, the “CREATINE PHOSPHOKINASE” value [4] was 148 u/L, the CREATININE [4] was 0.12 mg/dL and the “LACTATE DEHYDROGENASE” value [4] was 105 u/L. It also gave an LIPASE [4] of 9.33 u/L, a PHOSPHORUS [4] of 10 mg/dL and a POTASSIUM [4] of 6.12 MEQ/L. The SODIUM [4] was 145.77 MEQ/L, the “TOTAL BILIRUBIN” value [4] was 0.17 mg/dL and the “URIC ACID” value [4] was 1.47 mg/dL. For the same compound, the “ABSOLUTE BASOPHIL” value [5] was 0 CELLS/uL, the “ABSOLUTE EOSINOPHIL” value [5] was 0 CELLS/uL and the “ABSOLUTE LYMPHOCYTE” value [5] was 5111.33 CELLS/uL. The “ABSOLUTE MONOCYTE” value [5] was 0 CELLS/uL, the “ABSOLUTE SEGMENTED NEUTROPHIL” value [5] was 1222 CELLS/uL and the BASOPHIL [5] was 0%. For the same compound, the EOSINOPHIL [5] was 0%, the “ERYTHROCYTE COUNT” value [5] was 4.43 x10E6/uL and the HEMATOCRIT [5] was 26.73%. The HEMOGLOBIN [5] was 10.7 G/DL, the “LEUKOCYTE COUNT” value [5] was 6.33 x10E3/uL and the LYMPHOCYTE [5] was 76.67%. The “MEAN CORPUSCULAR HEMOGLOBIN” value [5] was 24.2 pg, the “MEAN CORPUSCULAR HEMOGLOBIN CONCENTRATION” value [5] was 40.03 G/DL and the “MEAN CORPUSCULAR VOLUME” value [5] was 60.47 fL. For the same compound, the NEUTROPHIL [5] was 23.33%, the “NUCLEATED RED BLOOD CELLS” value [5] was 0.67 /100WBC and the “PLATELET COUNT” value [5] was 1253.67 x10E3/uL. For the same compound, the “ALANINE AMINOTRANSFERASE” value [5] was 24 u/L, the ALBUMIN [5] was 2.23 G/DL and the “ALKALINE PHOSPHATASE” value [5] was 221.33 u/L. The “ASPARTATE AMINOTRANSFERASE” value [5] was 56 u/L, the “BLOOD UREA NITROGEN” value [5] was 17.33 mg/dL and the “CARBON DIOXIDE” value [5] was 31.67 mmol/L.
